From patent publication US20130158113A1, “METHODS AND COMPOSITIONS FOR TREATING BRAIN CANCER” (Golden Biotechnology Corporation, priority 2011, published 2013)
≈ marks a conversion by molar mass, not a printed value. Where “and” joins values, the source holds several entries; their conditions need not be identical. Identical values can stand only once.

Key:
[1] = Determination of Compound 1 in mice brain by LC/MS/MS; type: in vivo; conditions: male CD-1 mice fed 1 mg/g in 0.5% methylcellulose, brain removed after 15 minute; individual brains 1-3
Description: The concentration of compound 1 in brain samples was analyzed by LC/MS/MS spectrometer. Experiments were performed on male CD-1 derived mice weighing 24±2 g (Biolasco Taiwan). The CD-1 mice were fed with 1 mg/g Compound 1 in 0.5% methylcellulose (concentration is 2 mg/mL). The brains of the CD-1 mice were removed after 15 minute and extracted with CH3CN and then centrifuged to prepare supernatant that was analyzed by LC/MS/MS.

[2] = test system: SK-N-MC cells; test: MTT survival assay on SK-N-MC brain cancer cells; type: cell-based; conditions: Homo sapiens, 48 hours
Description: The NCI anti-cancer drug screen model was adopted to test anti-cancer effect of the exemplary compounds from Example 1. The isolated compound 1 from Example 1 was added into the culture media of brain-cancer cells, SK-N-MC, to test for tumor cell survival by MTT assay.
(§1) MTT assay is commonly used to determine cell proliferation, percent of viable cells, and cytotoxicity. MTT (3-[4,5-dimethylthiazol-2-yl]2,5-diphenyltetrazolium bromide) is a yellow dye, which can be absorbed by the living cells and be reduced to purplish blue formazan crystals by succinate tetrazolium reductase in mitochondria. Formazan formation can therefore be used to assess and determine the survival rate of cells.
SK-N-MC cells were suspended and cultured in 10% fetal bovine serum (Life Technologies Inc.) culture medium containing 1% penicillin and 1% streptomycin. The cells were incubated under 5% CO2, 37° C. for 24 hours. After cell proliferation, the cells were washed once with PBS, treated with the trypsin-EDTA, and then centrifuged at 1,200 rpm for 5 minutes to separate cells from supernatant. The cells were re-suspended in fresh culture medium (10 mL) and placed in 96 well plates.
(§2) To each of the 96 well plates containing SK-N-MC, 0.003, 0.01, 0.03, 0.1, and 0.3 μg/ml of compound 1 were add. The 96 well plates were incubated at 37° C., 5% CO2 for 48 hours. Subsequently, in the dark environment to each well of the plates were added 2.5 mg/ml of MTT. The reaction was terminated by addition of 100 μl of lysis buffer after 4 hours. The survival rate of cells was calculated based on the measurement of absorption at the 570 nm wavelength by enzyme immunoassay analyzer. The half maximal inhibitory concentration (IC50) values of compound 1 on SK-N-MC was 0.05 μg/mL. Similarly, another exemplary cancer cell lines, U373MG, were used.

[3] = test system: U373MG; test: MTT survival assay on U373MG cancer cells; type: cell-based; conditions: Homo sapiens, U373 MG, read-out: half maximal inhibitory concentration (IC50)
Source text: as §1, §2

## COC1=C(OC)C(O)C(C/C=C(\C)CC/C=C(\C)CCC=C(C)C)C(C)C1=O (centres unmarked) [Compound 1, 4-hydroxy-2,3-dimethoxy-6-methyl-5-(3,7,11-trimethyldodeca-2,6,10-trienyl)cyclohex-2-enone]
[1]
  Brain concentration: 30.13 µg/g and 7.59 µg/g and 24.28 µg/g
[2]; 0.003 μg/ml, read-out: Cell viability rate mean
  viability at 0.003 µg/mL: 86.3%
[2]; 0.01 μg/ml, read-out: Cell viability rate mean
  viability at 0.01 µg/mL: 76.6%
[2]; 0.03 μg/ml, read-out: Cell viability rate mean
  viability at 0.03 µg/mL: 63.2%
[2]; 0.1 μg/ml, read-out: Cell viability rate mean
  viability at 0.1 µg/mL: 32.9%
[2]; 0.3 μg/ml, read-out: Cell viability rate mean
  viability at 0.3 µg/mL: 23%
[2]; read-out: half maximal inhibitory concentration (IC50)
  IC50: 0.05 µg/mL (≈ 0.128 µM)
[3]
  IC50: 5.88 µg/mL (≈ 15.1 µM)
